This is an account of results in ChEMBL document CHEMBL1145498, “A systematic interaction map of validated kinase inhibitors with Ser/Thr kinases” (Proc Natl Acad Sci U S A, 2007).

The target in test [1] is Mitogen-activated protein kinase 1 (Homo sapiens, UniProt P28482). Description: Inhibition of ERK2.
Test [2] in a line: Inhibition of CaM-K2.
For test [3], the target named is Calcium/calmodulin-dependent protein kinase type IV (Homo sapiens, UniProt Q16566). In words: Inhibition of CaM-K4.
Test [4] is described as follows: Inhibition of CaM-K1.
In test [5] the target is T1, Myosin light chain kinase, smooth muscle (Homo sapiens, UniProt Q15746). Description: Binding affinity at MLCK.
For test [6], the target named is Protein kinase C alpha type (Homo sapiens, UniProt P17252). Description: Inhibition of PKCalpha.
The target in test [7] is Epidermal growth factor receptor (Homo sapiens, UniProt P00533).
Test [8] addresses Protein kinase C beta type (Homo sapiens, UniProt P05771). Description: Inhibition of PKCbeta.
The target of test [9] is T2, Glycogen synthase kinase-3 beta (Homo sapiens, UniProt P49841). In words: Inhibition of GSK3-beta. Conditions: read-out: IC50.
Test [10] has as its target T2, Glycogen synthase kinase-3 beta. Description: Binding affinity to GSK3-beta.
In test [11] the target is Tyrosine-protein kinase Lck (Homo sapiens, UniProt P06239).
Test [12] can be described thus: Inhibition of Cdk5/p35.
The target of test [13] is T3, Protein kinase C epsilon type (Homo sapiens, UniProt Q02156).
T3 sequence (Q02156 whole entry): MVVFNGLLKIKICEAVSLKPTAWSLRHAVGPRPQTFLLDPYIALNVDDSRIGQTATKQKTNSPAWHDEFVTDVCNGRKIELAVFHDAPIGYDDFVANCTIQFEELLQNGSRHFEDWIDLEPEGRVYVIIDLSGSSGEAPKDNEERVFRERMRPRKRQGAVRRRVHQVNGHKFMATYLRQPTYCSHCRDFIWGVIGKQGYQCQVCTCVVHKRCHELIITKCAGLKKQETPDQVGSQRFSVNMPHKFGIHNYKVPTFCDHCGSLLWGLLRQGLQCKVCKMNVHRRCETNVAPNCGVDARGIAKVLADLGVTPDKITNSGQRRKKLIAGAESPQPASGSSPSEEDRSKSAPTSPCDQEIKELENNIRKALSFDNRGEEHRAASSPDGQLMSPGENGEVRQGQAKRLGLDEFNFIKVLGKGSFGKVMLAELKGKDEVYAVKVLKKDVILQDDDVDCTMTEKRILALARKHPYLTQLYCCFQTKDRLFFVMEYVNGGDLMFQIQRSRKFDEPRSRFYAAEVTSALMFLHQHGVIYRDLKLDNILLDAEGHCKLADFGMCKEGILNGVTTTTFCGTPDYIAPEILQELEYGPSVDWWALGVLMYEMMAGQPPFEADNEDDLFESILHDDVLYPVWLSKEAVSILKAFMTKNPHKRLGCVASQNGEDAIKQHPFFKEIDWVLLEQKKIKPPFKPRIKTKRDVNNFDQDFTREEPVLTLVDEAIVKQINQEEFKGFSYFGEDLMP
In words: Inhibition of PKCepsilon.

Test [14] deals with Serine-protein kinase ATM (Homo sapiens, UniProt Q13315). In words: Inhibition of ATM.
In test [15] the target is Serine/threonine-protein kinase ATR (Homo sapiens, UniProt Q13535). In words: Inhibition of ATR.
Test [16] is described as follows: Inhibition of mouse CaM kinase 2.
Test [17] is described as follows: Inhibition of serum-stimulated Akt kinase phosphorylation in human A375 cells. In kind it is cell-based. Conditions: A-375.
For test [18], the system named is A-375. In words: Antiproliferative activity against human A375 cells. In kind it is functional, cell-based.
Test [19] has as its target Vascular endothelial growth factor receptor 2 (Homo sapiens, UniProt P35968). In words: Inhibition of KDR.
The nature of test [20]: Inhibition Cdk1/cyclin E.
In test [21] the target is Proto-oncogene tyrosine-protein kinase Src (Homo sapiens, UniProt P12931). In words: Inhibition of Src. To be noted: read-out: IC50.
The target of test [22] is Cyclin-dependent kinase 1 (Homo sapiens, UniProt P06493). In words: Inhibition of Cdk1.
For test [23], the target named is Dual specificity mitogen-activated protein kinase kinase 1 (Homo sapiens, UniProt Q02750).
Test [24] has as its target Tyrosine-protein kinase Fyn (Homo sapiens, UniProt P06241). In words: Inhibition of Fyn.
The nature of test [25]: Inhibition of SGK.
The nature of test [26]: Inhibition of Cdk4/cyclin D.
A short description of test [27]: Inhibition of Cdk1/cyclin A.
Test [28] has as its target RAC-alpha serine/threonine-protein kinase (Homo sapiens, UniProt P31749). In words: Inhibition of AKT.
For test [29], the target named is Ephrin type-B receptor 3 (Homo sapiens, UniProt P54753). In words: Inhibition of EphB3.
Test [30] concerns the target Protein kinase C delta type (Homo sapiens, UniProt Q05655). In words: Inhibition of PKCdelta.
The target in test [31] is Inhibitor of nuclear factor kappa-B kinase subunit beta (Homo sapiens, UniProt O14920). In words: Inhibition of IKK-beta.
The target in test [32] is Mitogen-activated protein kinase 10 (Homo sapiens, UniProt P53779).
Test [33] concerns the target T1, Myosin light chain kinase, smooth muscle. In words: Inhibition of myosin light chain kinase.

T1 sequence (Q15746 whole entry): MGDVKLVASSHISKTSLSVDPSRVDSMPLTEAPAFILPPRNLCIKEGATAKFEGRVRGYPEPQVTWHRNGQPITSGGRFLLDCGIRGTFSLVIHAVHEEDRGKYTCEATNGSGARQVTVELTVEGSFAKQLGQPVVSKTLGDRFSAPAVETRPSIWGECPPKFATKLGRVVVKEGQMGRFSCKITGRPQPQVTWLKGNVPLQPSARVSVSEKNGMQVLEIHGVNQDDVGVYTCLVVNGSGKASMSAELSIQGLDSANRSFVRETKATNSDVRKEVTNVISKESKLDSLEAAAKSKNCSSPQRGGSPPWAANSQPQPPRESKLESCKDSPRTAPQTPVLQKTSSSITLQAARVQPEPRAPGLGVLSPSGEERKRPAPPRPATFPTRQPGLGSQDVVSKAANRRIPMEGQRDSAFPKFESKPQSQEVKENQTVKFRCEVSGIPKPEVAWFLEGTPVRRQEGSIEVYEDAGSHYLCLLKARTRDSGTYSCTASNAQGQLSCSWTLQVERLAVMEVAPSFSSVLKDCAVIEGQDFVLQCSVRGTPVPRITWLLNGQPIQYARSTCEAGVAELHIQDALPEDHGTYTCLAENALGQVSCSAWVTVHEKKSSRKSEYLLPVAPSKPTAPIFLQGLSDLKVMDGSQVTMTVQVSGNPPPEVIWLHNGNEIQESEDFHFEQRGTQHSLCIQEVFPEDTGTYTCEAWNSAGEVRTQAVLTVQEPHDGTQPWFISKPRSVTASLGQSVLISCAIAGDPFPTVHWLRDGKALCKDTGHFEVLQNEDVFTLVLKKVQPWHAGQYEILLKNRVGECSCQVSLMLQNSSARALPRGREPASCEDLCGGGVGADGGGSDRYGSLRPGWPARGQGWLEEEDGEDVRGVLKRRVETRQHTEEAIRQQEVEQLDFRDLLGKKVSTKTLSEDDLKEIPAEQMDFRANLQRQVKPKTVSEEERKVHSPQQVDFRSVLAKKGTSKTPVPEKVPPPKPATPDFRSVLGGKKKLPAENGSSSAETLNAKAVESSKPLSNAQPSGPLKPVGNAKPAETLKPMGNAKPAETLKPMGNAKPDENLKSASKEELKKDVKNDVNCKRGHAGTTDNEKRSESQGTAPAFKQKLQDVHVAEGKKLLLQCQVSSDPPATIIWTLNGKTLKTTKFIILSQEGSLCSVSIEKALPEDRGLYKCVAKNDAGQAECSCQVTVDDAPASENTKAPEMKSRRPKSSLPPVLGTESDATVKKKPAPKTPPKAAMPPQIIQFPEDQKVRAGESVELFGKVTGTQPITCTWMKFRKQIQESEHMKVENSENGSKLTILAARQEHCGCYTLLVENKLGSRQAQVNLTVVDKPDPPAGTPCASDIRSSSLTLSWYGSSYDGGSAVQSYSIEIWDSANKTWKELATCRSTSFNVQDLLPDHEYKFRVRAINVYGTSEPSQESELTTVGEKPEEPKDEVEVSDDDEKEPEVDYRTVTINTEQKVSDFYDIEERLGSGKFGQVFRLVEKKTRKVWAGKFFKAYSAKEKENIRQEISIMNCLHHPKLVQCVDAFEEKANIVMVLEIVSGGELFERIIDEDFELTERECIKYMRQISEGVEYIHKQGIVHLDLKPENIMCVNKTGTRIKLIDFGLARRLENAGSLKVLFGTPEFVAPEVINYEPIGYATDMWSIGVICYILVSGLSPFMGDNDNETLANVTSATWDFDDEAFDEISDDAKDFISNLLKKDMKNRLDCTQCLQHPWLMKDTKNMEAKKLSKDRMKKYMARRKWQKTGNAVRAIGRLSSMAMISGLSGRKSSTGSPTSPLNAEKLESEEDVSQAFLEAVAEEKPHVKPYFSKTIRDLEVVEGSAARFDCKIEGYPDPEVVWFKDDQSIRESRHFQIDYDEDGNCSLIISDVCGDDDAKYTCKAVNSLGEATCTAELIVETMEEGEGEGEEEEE
T2 sequence (P49841 whole entry): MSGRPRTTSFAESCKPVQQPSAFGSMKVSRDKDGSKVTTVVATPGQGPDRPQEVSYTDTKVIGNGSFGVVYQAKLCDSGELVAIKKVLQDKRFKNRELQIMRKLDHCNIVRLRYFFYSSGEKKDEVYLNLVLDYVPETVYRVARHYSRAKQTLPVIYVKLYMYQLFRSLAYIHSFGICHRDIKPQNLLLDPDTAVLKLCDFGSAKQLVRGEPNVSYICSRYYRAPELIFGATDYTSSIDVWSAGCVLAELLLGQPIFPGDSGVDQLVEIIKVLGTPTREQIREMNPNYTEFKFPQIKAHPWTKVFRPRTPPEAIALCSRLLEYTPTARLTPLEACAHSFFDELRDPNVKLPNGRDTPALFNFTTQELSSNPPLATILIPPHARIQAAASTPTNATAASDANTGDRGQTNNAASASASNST
Protein kinase C beta type, sequence (P05771 whole entry): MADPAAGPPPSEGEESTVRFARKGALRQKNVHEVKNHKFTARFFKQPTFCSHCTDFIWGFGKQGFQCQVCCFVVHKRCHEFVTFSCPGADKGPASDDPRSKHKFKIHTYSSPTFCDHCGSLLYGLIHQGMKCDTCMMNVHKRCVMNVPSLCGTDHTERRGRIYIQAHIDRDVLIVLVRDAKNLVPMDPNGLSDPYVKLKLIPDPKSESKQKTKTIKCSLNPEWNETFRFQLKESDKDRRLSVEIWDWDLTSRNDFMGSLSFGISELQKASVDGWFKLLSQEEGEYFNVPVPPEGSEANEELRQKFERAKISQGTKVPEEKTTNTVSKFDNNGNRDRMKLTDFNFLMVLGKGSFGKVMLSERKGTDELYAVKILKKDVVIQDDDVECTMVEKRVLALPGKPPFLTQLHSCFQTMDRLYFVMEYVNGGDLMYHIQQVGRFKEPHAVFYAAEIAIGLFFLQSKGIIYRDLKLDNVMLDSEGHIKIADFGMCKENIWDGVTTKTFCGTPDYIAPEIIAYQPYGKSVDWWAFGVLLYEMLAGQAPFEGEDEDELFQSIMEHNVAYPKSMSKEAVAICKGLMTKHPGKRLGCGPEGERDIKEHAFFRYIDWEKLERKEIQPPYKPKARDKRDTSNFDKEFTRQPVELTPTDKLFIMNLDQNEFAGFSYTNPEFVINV
Inhibitor of nuclear factor kappa-B kinase subunit beta, sequence (O14920 whole entry): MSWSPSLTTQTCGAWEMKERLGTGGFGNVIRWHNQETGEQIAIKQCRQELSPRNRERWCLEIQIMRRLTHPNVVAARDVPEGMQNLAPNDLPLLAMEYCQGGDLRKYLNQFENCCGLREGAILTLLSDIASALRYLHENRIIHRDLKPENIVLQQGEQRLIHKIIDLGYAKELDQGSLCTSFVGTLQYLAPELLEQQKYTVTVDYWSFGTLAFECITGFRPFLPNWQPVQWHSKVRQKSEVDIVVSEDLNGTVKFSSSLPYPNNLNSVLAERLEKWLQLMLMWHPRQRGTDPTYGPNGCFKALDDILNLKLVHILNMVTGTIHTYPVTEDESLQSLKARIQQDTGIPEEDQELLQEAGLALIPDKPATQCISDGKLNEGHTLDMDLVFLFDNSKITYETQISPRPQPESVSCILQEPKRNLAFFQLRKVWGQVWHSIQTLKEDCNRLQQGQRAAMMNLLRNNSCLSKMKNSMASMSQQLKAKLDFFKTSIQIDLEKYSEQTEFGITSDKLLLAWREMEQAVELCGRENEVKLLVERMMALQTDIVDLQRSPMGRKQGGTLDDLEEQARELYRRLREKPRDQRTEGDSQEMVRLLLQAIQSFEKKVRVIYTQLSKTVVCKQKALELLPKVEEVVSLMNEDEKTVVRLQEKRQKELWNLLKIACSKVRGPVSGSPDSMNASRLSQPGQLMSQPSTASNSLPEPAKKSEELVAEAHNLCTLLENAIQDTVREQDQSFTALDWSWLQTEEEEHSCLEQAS
Dual specificity mitogen-activated protein kinase kinase 1, sequence (Q02750 whole entry): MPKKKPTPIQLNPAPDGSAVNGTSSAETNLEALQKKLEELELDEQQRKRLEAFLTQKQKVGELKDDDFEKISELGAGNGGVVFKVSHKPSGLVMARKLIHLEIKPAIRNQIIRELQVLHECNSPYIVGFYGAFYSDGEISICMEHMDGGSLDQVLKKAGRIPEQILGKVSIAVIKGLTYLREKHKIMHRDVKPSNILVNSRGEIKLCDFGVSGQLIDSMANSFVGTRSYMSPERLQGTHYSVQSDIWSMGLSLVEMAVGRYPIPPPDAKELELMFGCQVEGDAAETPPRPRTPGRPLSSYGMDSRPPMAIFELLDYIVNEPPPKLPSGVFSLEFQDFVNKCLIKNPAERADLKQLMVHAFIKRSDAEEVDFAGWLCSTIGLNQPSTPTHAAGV

Broadly, the IC50 is the concentration at which inhibition is half-maximal. As for `CC(=O)O.O=C(O)c1ccc2c3c1cccc3c(=O)n1c3ccccc3nc21`, the IC50 in test [1] was greater than 26700 nM; in test [2], 10 µg/mL; in test [3] it was greater than 26700 nM; in [4], greater than 10 µg/mL; in [5] it was 26700 nM.
On to `CCn1cnc2c(N)nc(N(c3cccc(Cl)c3)[C@@H]3CCCC[C@@H]3N)nc21` (relative stereo), for which the values for the IC50 in test [6] and in [7] were 6100 nM and greater than 10000 nM, respectively.
For `Cn1c2ccccc2c2c3c(c4c5ccccc5n(CCC#N)c4c21)CNC3=O` [GO-6976], the IC50 in test [6] and in [8] was 2 nM each time.
A word on the Kd: it is the free concentration of one partner at which half of the binding sites on the other are occupied at equilibrium, for simple one-to-one binding. High values mean lower affinity, low ones higher affinity. As for `CC(C)n1cnc2c(Nc3cccc(Cl)c3)nc(NCCO)nc21`, the IC50 in test [9] amounted to 30 nM. Moreover, the Kd in [10] came to 126 nM.
For the compound `COc1c(C=O)c(O)cc2c1C(=O)c1ccccc1C2=O` [DAMNACANTHAL], half-maximal inhibition in [11] (IC50) required 620 nM.
`CC(C)[C@H](CO)Nc1nc(Nc2cccc(Cl)c2)c2ncn(C(C)C)c2n1` [PURVALANOLA] displayed an IC50 in test [12] of 75 nM.
In test [13], `COCc1cc(O)c(O)c(O)c1-c1c(COC)cc(O)c(O)c1O` had an IC50 of 175 nM.
In test [14], `CCN(CC)CCCCNc1ncc2cc(-c3cc(OC)cc(OC)c3)c(NC(=O)NC(C)(C)C)nc2n1` [PD-173074] displayed an IC50 of 17600 nM.
For the compound `NC(N)=S` [THIOUREA], the IC50 in [15] and in test [14] was 200 nM each time.
`Oc1cccc(-c2nc(N3CCOCC3)c3sccc3n2)c1`: the IC50 in test [16] is 370 nM; in test [6], no less than 3400 nM; in test [17], less than 3000 nM; in [18] it was 580 nM; in [19], no less than 3400 nM.
On to `O=C1Nc2ccccc2/C1=C1/Nc2ccccc2/C1=N\OCC(O)CO` (configuration not stated), for which the IC50 in [20] amounted to 210 nM; in test [21], 430 nM.
In the case of `O=Nc1c(-c2c(O)[nH]c3ccc(I)cc23)[nH]c2ccccc12`, the IC50 in test [22] turned out to be 5 nM.
Turning to `O=C1C=CC(=O)c2ccccc21` [NAPHTHOQUINONE], in test [23], half-maximal inhibition (IC50) required 380 nM.
A word on the Ki: it is the dissociation constant of the complex between target and ligand, obtained from inhibition or displacement. Lower therefore signals a stronger hold on the target. As to `O=C1N=C(NCc2cccs2)S/C1=C/c1ccc2ncccc2c1`, the Ki is greater than 2000 nM in test [24]; 497 nM in test [25]; greater than 2000 nM in test [26]; greater than 2000 nM in test [6]; 110 nM in test [27]; greater than 2000 nM in [28]. The inhibition constant Ki in test [29] was greater than 2000 nM; in test [30], 318 nM.
`NC(=O)Nc1sc(-c2ccccc2)cc1C(N)=O` returned an IC50 in [31] of 13 nM.
`Oc1c2ccccc2c2c3c(cccc13)N=N2` [SP-600125]: the IC50 in [32] was found to be 90 nM.
`O=S(=O)(c1cccc2cnccc12)N1CCCNCC1` [FASUDIL] showed an IC50 in [33] of 3600 nM.
